This is an account of results in patent US7834048B2, “Azabicycloheptyl compounds suitable for treating disorders that respond to modulation of the dopamine D3 receptor” (Abbott GmbH & Co. KG, priority 2004, dated 2010).

For test [1], the target named is T1, human dopamine D3 receptors (Homo sapiens, UniProt P35462).
T1 construct: expressed in transfected cells
Description: Dopamine D3 receptor binding, [125I]-iodosulpride displacement, HEK-293 membranes. As to conditions: for Ki(D2)*/Ki(D3)*: selectivity, ratio of receptor binding constants D2L vs D3; for Ki: receptor binding constant, membranes of HEK-293 cells, 0.1 nM [125I]-iodosulpride, 25° C., 60 minutes. The protocol: (§1) The substance to be tested was either dissolved in methanol/Chremophor® (BASF-AG) or in dimethyl sulfoxide and then diluted with water to the desired concentration.
(§2) Each assay mixture was run in triplicate.
The incubation buffer contained 50 mM tris, 120 mM NaCl, 5 mM KCl, 2 mM CaCl2, 2 mM MgCl2 and 0.1% bovine serum albumin, 10 μM […] and 0.1% ascorbic acid (prepared fresh daily). The buffer was adjusted to pH 7.4 with HCl.
(§3) After having been incubated at 25° C. for 60 minutes, the assay mixtures were filtered through a Whatman GF/B glass fiber filter under vacuum using a cell collecting device. The filters were transferred to scintillation viols using a filter transfer system. After 4 ml of Ultima Gold® (Packard) have been added, the samples were shaken for one hour and the radioactivity was then counted in a Beta-Counter (Packard, Tricarb 2000 or 2200CA). The cpm values were converted into dpm using a standard quench series and the program belonging to the instrument.
(§4) The inhibition curves were analyzed by means of iterative nonlinear regression analysis using the Statistical Analysis System (SAS) which is similar to the “LIGAND” program described by Munson and Rodbard.
(§5) The results of the receptor binding studies are expressed as receptor binding constants Ki(D2) and Ki(D3), respectively, as herein before described, and given in table 1.

Test [2] concerns the target T2, human dopamine D2L receptors (long isoform) (Homo sapiens, UniProt P14416).
T2 construct: expressed in transfected cells
Briefly: Dopamine D2L receptor binding, [125I]iodospiperone displacement, HEK-293 membranes. As to conditions: receptor binding constant; membranes of HEK-293 cells, 0.01 nM [125I]iodospiperone, 25° C., 60 minutes; read-out: Ki(D2)*. As to the method:
as §1, §2
The incubation buffer contained 50 mM tris, 120 mM NaCl, 5 mM KCl, 2 mM CaCl2, 2 mM MgCl2 and 0.1% bovine serum albumin. The buffer was adjusted to pH 7.4 with HCl.
as §3, §4, §5

The structures appear in SMILES notation.

T2 sequence (P14416 whole entry, canonical isoform): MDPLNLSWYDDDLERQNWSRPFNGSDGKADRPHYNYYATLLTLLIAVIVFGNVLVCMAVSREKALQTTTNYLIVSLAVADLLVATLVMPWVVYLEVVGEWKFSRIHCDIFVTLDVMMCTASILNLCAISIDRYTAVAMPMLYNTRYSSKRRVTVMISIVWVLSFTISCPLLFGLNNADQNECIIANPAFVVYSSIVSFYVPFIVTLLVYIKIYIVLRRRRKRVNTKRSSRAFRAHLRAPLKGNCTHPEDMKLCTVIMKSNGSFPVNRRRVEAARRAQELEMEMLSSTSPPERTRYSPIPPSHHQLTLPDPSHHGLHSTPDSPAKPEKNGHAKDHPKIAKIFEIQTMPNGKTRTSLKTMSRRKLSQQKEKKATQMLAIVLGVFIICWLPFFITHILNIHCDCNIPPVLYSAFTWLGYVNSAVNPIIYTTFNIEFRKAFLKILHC
T1 sequence (P35462 whole entry): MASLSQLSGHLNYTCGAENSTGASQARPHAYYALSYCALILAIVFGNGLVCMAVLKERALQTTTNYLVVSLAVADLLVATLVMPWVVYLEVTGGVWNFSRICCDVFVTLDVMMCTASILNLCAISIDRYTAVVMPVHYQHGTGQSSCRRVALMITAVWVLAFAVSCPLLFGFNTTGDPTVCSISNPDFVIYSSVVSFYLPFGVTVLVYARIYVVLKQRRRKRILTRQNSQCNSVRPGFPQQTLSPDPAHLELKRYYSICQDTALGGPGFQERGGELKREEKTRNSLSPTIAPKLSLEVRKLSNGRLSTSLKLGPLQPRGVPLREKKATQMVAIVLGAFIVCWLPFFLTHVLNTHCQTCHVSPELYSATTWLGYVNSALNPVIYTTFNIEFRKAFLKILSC

Turning to `CCCN1C[C@H]2C[C@H](c3ccc(NS(=O)(=O)c4ccc(C(C)C)cc4)cc3)[C@H]2C1` (relative stereo) [Example 3, 4-Isopropyl-N-[4-(exo-3-propyl-3-aza-bicyclo[3.2.0]hept-6-yl)-phenyl]-benzenesulfonamide], the “Ki(D2)*/Ki(D3)*” value in test [1] is reported as 45.

As for `CCCN1C[C@H]2C[C@@H](c3ccc(NS(=O)(=O)c4ccc(C(C)C)cc4)cc3)[C@H]2C1` (relative stereo) [Example 16, endo-4-Isopropyl-N-[4-(3-propyl-3-aza-bicyclo[3.2.0]hept-6-yl)-phenyl]-benzenesulfonamide], the inhibitory constant (Ki) in test [1] was 5.3 nM; in test [2], 208 nM. For the same compound, the “Ki(D2)*/Ki(D3)*” value in test [1] is 39.

Consider `CCCN1C[C@@H]2C[C@@H](c3ccc(NS(=O)(=O)c4ccc(C(C)C)cc4)cc3)[C@@H]2C1` [Example 1, 4-Isopropyl-N-[4-((1R,5S,6R)-3-propyl-3-aza-bicyclo[3.2.0]hept-6-yl)-phenyl]-benzenesulfonamide], for which, in test [1], the Ki turned out to be 0.47 nM and the “Ki(D2)*/Ki(D3)*” value stood at 28. In addition, the Ki in test [2] was 12.9 nM.

For `CCCN1C[C@@H]2C[C@@H](c3ccc(NS(=O)(=O)c4ccc(OC(F)(F)F)cc4)cc3)[C@@H]2C1` [Example 4, N-[4-((1R,5S,6R)-3-Propyl-3-aza-bicyclo[3.2.0]hept-6-yl)-phenyl]-4-trifluoromethoxy-benzenesulfonamide], the Ki in test [1] is 5.43 nM; in test [2], 66.6 nM. Further, the “Ki(D2)*/Ki(D3)*” value in test [1] came out at 12.

As for `CCCN1C[C@@H]2C[C@@H](c3ccc(NS(=O)(=O)c4ccc(C(F)(F)F)cc4)cc3)[C@@H]2C1` [Example 5, N-[4-((1R,5S,6R)-3-Propyl-3-aza-bicyclo[3.2.0]hept-6-yl)-phenyl]-4-trifluoromethyl-benzenesulfonamide], the Ki in test [1] was 3.15 nM; in test [2] it was 72.1 nM. For the same compound, the “Ki(D2)*/Ki(D3)*” value in test [1] is 23.

As for `C=CCN1C[C@@H]2C[C@@H](c3ccc(NS(=O)(=O)c4ccc(OC(F)(F)F)cc4)cc3)[C@@H]2C1` [Example 6, N-[4-((1R,5S,6R)-3-Allyl-3-aza-bicyclo[3.2.0]hept-6-yl)-phenyl]-4-trifluoromethoxy-benzenesulfonamide], in test [1], the Ki is 4.13 nM and the “Ki(D2)*/Ki(D3)*” value was 11. In addition, in test [2], the Ki turned out to be 47 nM.

On to `CCCN1C[C@@H]2C[C@@H](c3ccc(NS(=O)(=O)c4ccc(Br)cc4)cc3)[C@@H]2C1` [Example 7, 4-Bromo-N-[4-((1R,5S,6R)-3-propyl-3-aza-bicyclo[3.2.0]hept-6-yl)-phenyl]-benzenesulfonamide], for which the results for the Ki in test [1] and in test [2] were 1.31 nM and 31.7 nM, respectively. Moreover, the “Ki(D2)*/Ki(D3)*” value in test [1] came to 24.

For the compound `CCCN1C[C@@H]2C[C@@H](c3ccc(NS(=O)(=O)c4ccc(SC(F)(F)F)cc4)cc3)[C@@H]2C1` [Example 8, N-[4-((1R,5S,6R)-3-Propyl-3-aza-bicyclo[3.2.0]hept-6-yl)-phenyl]-4-trifluoromethylsulfanyl-benzenesulfonamide], in test [1], the Ki turned out to be 1.81 nM and the “Ki(D2)*/Ki(D3)*” value stood at 17. In addition, the Ki in test [2] came to 30.2 nM.

`CCCN1C[C@@H]2C[C@@H](c3ccc(NS(=O)(=O)c4ccc(N5CCC[C@@H]5COC)cc4)cc3)[C@@H]2C1` [Example 9, 4-((R)-2-Methoxymethyl-pyrrolidin-1-yl)-N-[4-((1R,5S,6R)-3-propyl-3-azabicyclo[3.2.0]hept-6-yl)-phenyl]-benzenesulfonamide]: in test [1], the Ki was 4.08 nM and the “Ki(D2)*/Ki(D3)*” value came to 13. In test [2], the Ki stood at 54.8 nM.

Take `CCCN1C[C@@H]2C[C@@H](c3ccc(NS(=O)(=O)c4ccc(N5CCCC5)cc4)cc3)[C@@H]2C1` [Example 10, N-[4-((1R,5S,6R)-3-Propyl-3-aza-bicyclo[3.2.0]hept-6-yl)-phenyl]-4-pyrrolidin-1-yl-benzenesulfonamide]: in test [1], the Ki was found to be 1.98 nM and the “Ki(D2)*/Ki(D3)*” value was found to be 16. Besides, the Ki in test [2] stood at 32 nM.

As for `CCCN1C[C@@H]2C[C@@H](c3ccc(NS(=O)(=O)c4ccc(N5CCC5)cc4)cc3)[C@@H]2C1` [Example 11, 4-Azetidin-1-yl-N-[4-((1R,5S,6R)-3-propyl-3-aza-bicyclo[3.2.0]hept-6-yl)-phenyl]-benzenesulfonamide], in test [1], the Ki came out at 2.19 nM and the “Ki(D2)*/Ki(D3)*” value amounted to 26. In addition, the inhibition constant (Ki) in test [2] amounted to 56.7 nM.

Take `CCCN1C[C@@H]2C[C@@H](c3ccc(NS(=O)(=O)c4ccc(-c5ccco5)cc4)cc3)[C@@H]2C1` [Example 12, N-[4-((1R,5S,6R)-3-Propyl-3-aza-bicyclo[3.2.0]hept-6-yl)-phenyl]-4-furan-2-yl-benzenesulfonamide]: in test [1], the Ki was 4.46 nM and the “Ki(D2)*/Ki(D3)*” value amounted to 8. In addition, the Ki in test [2] is 37.6 nM.

Take `CCCN1C[C@@H]2C[C@@H](c3ccc(NS(=O)(=O)c4ccc(-c5cccs5)cc4)cc3)[C@@H]2C1` [Example 13, N-[4-((1R,5S,6R)-3-Propyl-3-aza-bicyclo[3.2.0]hept-6-yl)-phenyl]-4-thiophen-2-yl-benzenesulfonamide]: in test [1], the affinity, expressed as Ki, was 1.32 nM and the “Ki(D2)*/Ki(D3)*” value worked out at 10. Also, in test [2], the inhibition constant (Ki) worked out at 13.1 nM.

`CCCN1C[C@H]2C[C@H](c3ccc(NS(=O)(=O)c4ccc(C(C)C)cc4)cc3)[C@H]2C1` [Example 14, 4-Isopropyl-N-[4-((1S,5R,6S)-3-propyl-3-aza-bicyclo[3.2.0]hept-6-yl)-phenyl]-benzenesulfonamide]: the “Ki(D2)*/Ki(D3)*” value in test [1] was found to be 8.
